Data on 18 compounds can be found in patent publication US20100068204A1, “4-ARYLOXYQUINOLIN-2(1H)-ONES AS MTOR KINASE AND PI3 KINASE INHIBITORS, FOR USE AS ANTI-CANCER AGENTS” (Wyeth, priority 2008, published 2010).

One assay concerns the target human TOR (FLAG-TOR) (Homo sapiens, UniProt P42345). Kind of assay: mTOR enzyme assay (DELFIA format, purified enzyme). It counts as biochemical. As to conditions: 800 ng/ml FLAG-TOR, 100 μM ATP, 1.25 μM His6-S6K; read-out: mTOR Kinase IC50.
Assay [1] deals with LNCap prostate tumor cells. Kind of assay: In vitro cell growth assay (MTS), LNCap. It counts as cell-based, human. As to conditions: Homo sapiens, LNCaP, 72 h, three days after drug treatment. On the procedure: (§1) Cell lines used were human adenocarcinoma (LoVo), […], prostate (LNCap), breast (MDA468, MCF7), colon (HCT116), renal (HTB44 A498), and ovarian (OVCAR3) tumor cell lines. The tumor cells were plated in 96-well culture plates at approximately 3000 cells per well. One day following plating, various concentrations of inhibitors in DMSO were added to cells (final DMSO concentration in cell assays was 0.25%). Three days after drug treatment, viable cell densities were determined by cell mediated metabolic conversion of the dye MTS, a well-established indicator of cell proliferation in vitro. Cell growth assays were performed using kits purchased from Promega Corporation (Madison, Wis.), following the protocol provided by the vendor. Measuring absorbance at 490 nm generated MTS assay results. Compound effect on cell proliferation was assessed relative to untreated control cell growth.

A further assay addresses PI3Kα (Homo sapiens, UniProt P42336). As to the kind of experiment: PI3Kα fluorescence polarization assay. The class given is biochemical. Particulars: 20 μM PIP2, 25 μM ATP. Here is the method: The reaction buffer was 20 mM HEPES pH7.5, 2 mM MgCl2, 0.05% CHAPS, and 0.01% βME (added fresh). The substrate solution was 40 μM PIP2 (diC8, Echelon, Salt Lake City Utah cat #P-4508, 1 mM in water) and 50 μM ATP in the reaction buffer. Nunc 384-well black polypropylene fluorescent plates were used for PI3K assays. The assay is run by putting 9.5 μl of freshly diluted enzyme in the reaction buffer per well, adding 0.5 μl of diluted drug or DMSO, and mixing. Then 10 μl of the substrate solution is added to each well to start the reaction. A final concentration of 20 μM PIP2 and 25 μM ATP in the reaction was used. Reactions were allowed to proceed for 30-60 minutes at room temperature. After 30-60 minutes, 20 μl of a solution of 10 nM TAMRA detector (Red detector probe-Echelon) and 2.5 uM of GST-murine GRP (1.5 mg/ml in 17% glycerol) was added per well to stop the reaction. The resulting solution was mixed well and allowed to stand for 90-110 minutes before reading plate. Assay Plates were read on Perkin-Elmer Envision plate readers with appropriate filters for Tamra [BODIPY-TMRI(1,3,4,5)P4]. Data obtained were used to calculate enzymatic activity and enzyme inhibition by inhibitor compounds. It is important to keep Red probe solutions dark. This procedure is adapted from Echelon Biosciences Inc procedure for their PI3-Kinase fluorescence polarization activity Assay kit Product number K-1100.

Assay [2] concerns MDA468 breast tumor cells. Kind of assay: In vitro cell growth assay (MTS), MDA468. As to conditions: Homo sapiens, 72 h, three days after drug treatment. It counts as cell-based, human. On the procedure:
as §1

PI3Kα, sequence (P42336 whole entry, species assumed): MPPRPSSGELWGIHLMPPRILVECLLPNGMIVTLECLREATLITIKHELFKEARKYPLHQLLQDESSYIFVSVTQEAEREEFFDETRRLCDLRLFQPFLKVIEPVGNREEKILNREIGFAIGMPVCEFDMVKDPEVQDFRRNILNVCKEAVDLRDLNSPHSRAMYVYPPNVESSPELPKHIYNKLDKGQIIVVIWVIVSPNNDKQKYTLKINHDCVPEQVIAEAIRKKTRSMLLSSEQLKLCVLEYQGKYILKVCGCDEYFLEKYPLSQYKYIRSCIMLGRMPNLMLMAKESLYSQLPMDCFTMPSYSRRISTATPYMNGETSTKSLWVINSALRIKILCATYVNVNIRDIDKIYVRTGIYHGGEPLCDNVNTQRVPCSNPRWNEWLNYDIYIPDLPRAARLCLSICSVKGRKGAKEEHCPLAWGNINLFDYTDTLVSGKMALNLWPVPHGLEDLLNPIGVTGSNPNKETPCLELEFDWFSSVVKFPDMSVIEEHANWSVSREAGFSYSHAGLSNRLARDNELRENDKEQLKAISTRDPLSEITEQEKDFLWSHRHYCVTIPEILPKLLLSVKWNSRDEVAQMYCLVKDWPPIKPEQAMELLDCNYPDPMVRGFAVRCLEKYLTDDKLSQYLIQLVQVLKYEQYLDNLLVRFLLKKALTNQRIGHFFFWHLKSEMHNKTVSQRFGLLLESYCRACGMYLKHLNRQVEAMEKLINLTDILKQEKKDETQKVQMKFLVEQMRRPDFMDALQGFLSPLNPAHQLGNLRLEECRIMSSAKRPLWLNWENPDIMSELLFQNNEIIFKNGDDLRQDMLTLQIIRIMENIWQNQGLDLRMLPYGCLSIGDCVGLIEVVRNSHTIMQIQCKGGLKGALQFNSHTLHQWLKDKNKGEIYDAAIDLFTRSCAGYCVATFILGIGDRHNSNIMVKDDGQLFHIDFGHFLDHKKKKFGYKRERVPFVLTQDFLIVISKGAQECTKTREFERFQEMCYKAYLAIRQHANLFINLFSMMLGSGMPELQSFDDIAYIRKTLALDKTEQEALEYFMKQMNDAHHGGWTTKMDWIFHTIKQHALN
PI3Kα, sequence (P27986 whole entry partner, species assumed): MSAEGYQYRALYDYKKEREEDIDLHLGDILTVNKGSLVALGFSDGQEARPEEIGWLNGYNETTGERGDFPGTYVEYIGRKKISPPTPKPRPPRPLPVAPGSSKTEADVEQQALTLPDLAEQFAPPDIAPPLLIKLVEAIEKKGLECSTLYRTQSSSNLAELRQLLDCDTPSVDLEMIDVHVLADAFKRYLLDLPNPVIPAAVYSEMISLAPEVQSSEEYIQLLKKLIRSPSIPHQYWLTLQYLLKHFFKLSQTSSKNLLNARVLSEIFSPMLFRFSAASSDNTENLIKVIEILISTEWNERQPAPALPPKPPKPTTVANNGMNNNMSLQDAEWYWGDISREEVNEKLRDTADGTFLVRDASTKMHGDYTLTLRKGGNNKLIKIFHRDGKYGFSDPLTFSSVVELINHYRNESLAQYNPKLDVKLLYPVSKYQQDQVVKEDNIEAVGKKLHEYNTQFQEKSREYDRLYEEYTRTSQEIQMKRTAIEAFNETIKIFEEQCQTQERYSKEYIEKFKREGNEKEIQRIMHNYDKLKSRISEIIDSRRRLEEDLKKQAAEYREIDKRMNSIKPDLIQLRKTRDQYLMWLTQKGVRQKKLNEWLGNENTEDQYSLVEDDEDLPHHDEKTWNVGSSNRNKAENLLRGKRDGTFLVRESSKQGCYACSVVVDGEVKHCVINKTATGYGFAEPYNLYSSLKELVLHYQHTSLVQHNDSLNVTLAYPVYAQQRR

Turning to `Nc1cccc(Oc2cc(=O)[nH]c3ccccc23)c1`, the IC50 (usually the concentration that inhibits the measured activity by half) at human TOR (FLAG-TOR) is 0.15 µM; in assay [1], 2.5 µM; on PI3Kα, 0.106 µM; in assay [2] it was 28 µM.

`CN(C)CCCOc1ccc(-c2cccc(Oc3cc(=O)[nH]c4ccccc34)c2)cn1`: the half-maximal inhibitory concentration (IC50) at human TOR (FLAG-TOR) is 0.08 µM; in assay [1], 3.8 µM; against PI3Kα, over 10 µM; in assay [2], 10 µM.

Regarding `O=c1cc(Oc2cccc(-c3ccsc3)c2)c2ccccc2[nH]1`, the IC50 turned out to be 0.63 µM at human TOR (FLAG-TOR), 30 µM in assay [1], 0.63 µM at PI3Kα and 60 µM in assay [2].

Turning to `O=c1cc(Oc2cccc(-c3cccc(NCc4cccnc4)c3)c2)c2ccccc2[nH]1`, the IC50 is 0.51 µM at human TOR (FLAG-TOR), 8 µM in assay [1], over 10 µM against PI3Kα and 28 µM in assay [2].

Turning to `COc1cnc(OC)c(CNc2cccc(Oc3cc(=O)[nH]c4ccccc34)c2)c1`, the IC50 is 0.51 µM at human TOR (FLAG-TOR), 9 µM in assay [1], 1.93 µM against PI3Kα and 15 µM in assay [2].

For the compound `CC(C)(C)OC(=O)n1ccc2cc(CNc3cccc(Oc4cc(=O)[nH]c5ccccc45)c3)cnc21`, the IC50 stood at 4.5 µM on human TOR (FLAG-TOR), 11.5 µM in assay [1], 11.8 µM against PI3Kα and 60 µM in assay [2].

As for `O=c1cc(Oc2cccc(-c3ccc(NCCN4CCOCC4)nc3)c2)c2ccccc2[nH]1`, the IC50 was found to be 0.15 µM on human TOR (FLAG-TOR), 4.7 µM in assay [1], 6.79 µM against PI3Kα and 2 µM in assay [2].

Consider `CC(C)(C)OCNC(=O)c1cccc(-c2cccc(Oc3cc(=O)[nH]c4ccccc34)c2)c1`, for which the IC50 on human TOR (FLAG-TOR) is 2.38 µM; in assay [1] it was 6.6 µM; against PI3Kα it was over 10 µM; in assay [2] it was over 60 µM.

Turning to `O=c1cc(Oc2ccc(-c3cccnc3)cc2)c2ccccc2[nH]1`, the IC50 turned out to be 1.75 µM on human TOR (FLAG-TOR), 2.15 µM in assay [1], 3.29 µM on PI3Kα and 16.6 µM in assay [2].

With `COc1ncccc1CNc1cccc(Oc2cc(=O)[nH]c3ccccc23)c1`, the concentration for half-maximal inhibition (IC50) is 0.4 µM at human TOR (FLAG-TOR), 8.5 µM in assay [1], 6.74 µM on PI3Kα and 60 µM in assay [2].

As for `O=c1cc(Oc2cccc(NC3CCN(Cc4ccccn4)CC3)c2)c2ccccc2[nH]1`, the concentration for half-maximal inhibition (IC50) was 0.19 µM on human TOR (FLAG-TOR), 6.5 µM in assay [1], over 10 µM against PI3Kα and 19 µM in assay [2].

As for `COCCNC(=O)Nc1ccc(-c2cccc(Oc3cc(=O)[nH]c4ccccc34)c2)cc1`, the IC50 at human TOR (FLAG-TOR) was 0.26 µM; in assay [1], over 60 µM; on PI3Kα it was over 10 µM; in assay [2], 60 µM.

Turning to `O=c1cc(Oc2cccc(-c3ccccc3)c2)c2ccccc2[nH]1`, the half-inhibitory concentration (IC50) at human TOR (FLAG-TOR) was 0.63 µM; in assay [1], 17 µM; on PI3Kα, over 10 µM; in assay [2] it was 60 µM.

As to `O=c1cc(Oc2cccc(-c3cn[nH]c3)c2)c2ccccc2[nH]1`, the concentration for half-maximal inhibition (IC50) on human TOR (FLAG-TOR) was 0.3 µM; in assay [1], 8 µM; against PI3Kα, 3.9 µM; in assay [2] it was 2.9 µM.

Regarding `CS(=O)(=O)Nc1ccc(-c2cccc(Oc3cc(=O)[nH]c4ccccc34)c2)cc1`, the concentration for half-maximal inhibition (IC50) is 0.27 µM on human TOR (FLAG-TOR), 5.8 µM in assay [1], over 10 µM against PI3Kα and 26 µM in assay [2].

Turning to `CN(C)CCNc1ccc(-c2cccc(Oc3cc(=O)[nH]c4ccccc34)c2)cc1`, the IC50 on human TOR (FLAG-TOR) worked out at 0.18 µM; in assay [1], 4.8 µM; against PI3Kα it was 5 µM; in assay [2] it was 8 µM.

Regarding `O=c1cc(Oc2ccc(C3N=CCN3)cc2)c2ccccc2[nH]1` (stereo not drawn), the IC50 is 0.78 µM on human TOR (FLAG-TOR), 45 µM in assay [1], over 10 µM against PI3Kα and 60 µM in assay [2].

As to `O=c1cc(Oc2cccc(-c3cccnc3)c2)c2ccccc2[nH]1`, the IC50 is 0.43 µM at human TOR (FLAG-TOR), 7 µM in assay [1], 3.66 µM against PI3Kα and 20 µM in assay [2].
